Measured values reported in patent publication EP0311632B1, “SURFACE ACTIVE LACTAMS” (priority 1986, dated 1988).
Read-outs that look alike come from different tables or passages of the source. Marks after values point to notes of the source that are not given here.

Columns and labels:
[1] = Cloud point of 10% aqueous solutions; assay type: physicochemical; settings: 10% aqueous solution
Excerpt: The higher the cloud point, the more soluble, i.e. hydrated, the surfactant.

[2] = Surface tension of aqueous solutions (Fisher Surface Tensiomat, ring tensiometer); assay type: physicochemical; settings: 25°C.
Method: Surface tension measurements in triplicate were made for each of the N-alkylpyrrolidone species listed below in Table 1, using a Fisher Surface Tensiomat (Model #21, Der Nouy Ring Tensionometer). Each experiment was carried out as follows.
Distilled water solutions at concentrations noted in Table 1 were prepared for each of the following surfactants in 100 ml glass flasks. The solutions were stirred for about 15 minutes until homogeneous solutions were obtained. The surface tensions of these solutions were then measured.

[3] = Viscosity (Brookfield Viscometer, LVT Model); assay type: physicochemical
Method: The viscosities in cps of the following surfactants at various concentration in distilled water were measured at about 25°C. using a Brookfield Viscometer (LVT Model).
The above viscosity of alkyl pyrrolidones and their aqueous solutions were obtained usinq a #2 spindle at a speed of 30 rpm, and a #2 spindle at a speed of 60 rpm respectively.

[4] = pH of product, 10% in 50/50 isopropyl alcohol-water; assay type: physicochemical
Excerpt: Into a stainless steel autoclave was introduced n-octylamine (2342 g) and butyrolactone (1704 g) in a mole ratio of about 1:1.1.

[5] = Solubility of N-alkyl pyrrolidones, 10% by weight in various liquids; assay type: physicochemical; parameters: key to 10% PRODUCT SOLUBILITY: I: insoluble; PS: partially soluble (cloudy translucent); S: soluble, clear; *: Soluble with slight haze; **: Very slight precipitation; settings: for 10% PRODUCT SOLUBILITY: 25°C ± 1°C; for solubility in water: room temperature, 10% concentration, in words
Method: Separate 10% by weight solutions of N-alkyl-2-pyrrolidone in the following liquids were made up in 50 ml glass beakers and the solubilities at about 25°C. were noted and reported in following Table 9.

[6] = Surface activity parameters calculated from surface tension measurements (Gibbs adsorption equation); assay type: physicochemical; settings: for am: area of the molecule at the interface; for CMC: critical micelle concentration, calculated from surface tension data; for pC-20: negative logarithm of surfactant concentration required to lower surface tension by 20 dynes/cm
Method: The critical micelle concentration (CMC), the surface concentration at the liquid-air interface ( ? ), the area of the test molecule at the interface (am) and the effectiveness of adsorption at the interface (pC-20) were determined on the above surface tension data reported in Example XXI, Table 1.
More specifically, the CMC of the N-(n alkyl) pyrrolidones tested show a minimum (4.7 x 10⁻⁵) at the C₁₂ chain length. Using the empirical equation for n-lauryl (C₁₂) alcohol ethoxylate, log CCMC (= A)^1 (+ B)^1 n [formula] where A¹ = 4.4, B¹ = 0.046, and n = number of ethylene oxide at 23°C., the pyrrolidone ring would be expected to behave as 2 ethylene oxide units. […] The hydrophilic-lipophilic balance (HLB) of N-n-dodecyl pyrrolidone, based on the assumption that the pyrrolidone ring simulates 2-6 ethylene oxide units is 6.5 - 11 using the equation % ethylene oxide/5 - HLB.
The surface concentration ? , in moles per cm indicates the maximum surface concentration of surfactant, i.e. at equilibrium above the CMC, and is obtained by an estimation of a constant d γ /dc* from the surface tension vs. concentration. […] The mono disperse nature of the hydrophobe and hydrophile is believed to contribute to high surface concentrations by maximizing enthropy of packing. * d γ/dc = the change in surface tension with respect to the change in surfactant concentration.

[7] = Titration of 10% dispersions with HCl to a clear solution (protonation); assay type: physicochemical; settings: clear solution after HCl titration
Excerpt: Ten percent dispersions of the C₈ and C₁₀ pyrrolidones were titrated to a clear solution using HCl.
To obtain a rough figure for the protonation equilibrium constant, the equilibrium [octyl pyrrolidone] was taken at 5 x 10⁻³m.

[8] = Density, heat of vaporization and solubility parameter; assay type: physicochemical
[9] = value starred: literature value; cited from earlier work
[10] = 0.0001% solution in distilled water
[11] = 0.001% solution in distilled water
[12] = 0.01% solution in distilled water
[13] = 0.1% solution in distilled water
[14] = 2% in distilled water, about 25°C., #2 spindle 60 rpm
[15] = 4% in distilled water, about 25°C., #2 spindle 60 rpm
[16] = 6% in distilled water, about 25°C., #2 spindle 60 rpm
[17] = 8% in distilled water, about 25°C., #2 spindle 60 rpm
[18] = 10% in distilled water, about 25°C., #2 spindle 60 rpm
[19] = 100%, about 25°C., #2 spindle 30 rpm
[20] = product as such, stated in description and preparation examples

Structure (SMILES)	Cloud Point [1]	Surface Tension of Aqueous Solutions [2, 11] [dynes/cm]	Surface Tension of Aqueous Solutions [2, 12] [dynes/cm]	Surface Tension of Aqueous Solutions [2, 13] [dynes/cm]	VISCOSITY [3, 19] [CPS]	VISCOSITY [3, 20] [cps]	pH [4]	10% PRODUCT SOLUBILITY ([5]; Acetone)	10% PRODUCT SOLUBILITY ([5]; Ethanol)	10% PRODUCT SOLUBILITY ([5]; Heptane)	10% PRODUCT SOLUBILITY ([5]; Paraffin Oil)	10% PRODUCT SOLUBILITY ([5]; Perchloroethylene)	10% PRODUCT SOLUBILITY ([5]; Stoddard Solvent)	10% PRODUCT SOLUBILITY ([5]; Water)	10% PRODUCT SOLUBILITY ([5]; Xylene)	solubility in water [5]	am [6]	CMC [6] [µM]	pC-20 [6]	also measured
CCCCCCCCCCCCN1CCCC1=O [N-dodecyl-2-pyrrolidone]	15-19 °C	29.9	27.6	26.7	17.0	17	7.3	S	S	S	PS	S	PS	S*	S	completely soluble	36.9 (Å)^2	47	5.27	Cloud Point ([1]; listed as dodecyl): 15-19 °C; Cloud Point ([1]; listed as dodecyl pyrrolidone): 31-32 °C; Surface Tension of Aqueous Solutions [2, 10]: 55.4 dynes/cm; VISCOSITY [3, 14]: 6.5 CPS; VISCOSITY [3, 15]: 7.5 CPS; VISCOSITY [3, 16]: 12.5 CPS; VISCOSITY [3, 17]: 16.0 CPS; VISCOSITY [3, 18]: 20.0 CPS
CCCCCCCCCCN1CCCC1=O [N-decyl-2-pyrrolidone]	19 °C	51.0	27.8	27.5	12.0	12	5.4	S	S	S	S	S	S	PS*	S	slightly soluble	36.1 (Å)^2	440	4.51	Solution pH [7]: <0.1; Surface Tension of Aqueous Solutions ([2]; 1.0% solution in distilled water): 27.6 dynes/cm
CCCCCCCCN1CCCC1=O [N-octyl-2-pyrrolidone]	< 0 °C	68.4	54.25	30.4	8.0	8	6.5	S	S	S	S	S	S**	I	S	insoluble	39.5 (Å)^2	–	3.20	Solution pH [7]: 0.22
CCCCCCCCCCCCCCN1CCCC1=O [N-tetradecyl-2-pyrrolidone]	33 °C	30.4	26.5	26.4	20.0	2	5.9	S	S	S	S	S	S	S*	S	completely soluble	53.6 (Å)^2	57	6.25	Heat of Vaporizn. [8]: 19.7 k cal/mole; Solubility Parameter (δ) [8]: 7.8; Cloud Point ([1]; listed as tetradecyl): 33 °C; Cloud Point ([1]; listed as tetradecyl pyrrolidone): 33-34 °C; Surface Tension of Aqueous Solutions [2, 10]: 47.5 dynes/cm; VISCOSITY [3, 14]: 24.5 CPS; VISCOSITY [3, 15]: 66.0 CPS; VISCOSITY [3, 16]: 96.0 CPS; VISCOSITY [3, 17]: 100.0 CPS; VISCOSITY [3, 18]: 145.0 CPS; Γm ([6]; surface concentration at the liquid-air interface): 3.1 10^-10 mol/cm²
CCCCCCCCCCCC[N+](C)(C)[O-] [lauryl dimethyl amine oxide, reference compound]	–	–	–	–	–	–	–	–	–	–	–	–	–	–	–	–	59.3 (Å)^2	–	5.23	CMC [9]: 2.1 x 10^-3* ml^-1
CCCCCCCCCCCCCCCCN1CCCC1=O [hexadecyl, N-hexadecyl-2-pyrrolidone]	insoluble	–	–	–	–	–	–	–	–	–	–	–	–	–	–	–	–	–	–	–
O=C1CCCN1C1CCCCC1 [N-cyclohexyl pyrrolidone, reference compound]	55 °C	–	–	–	–	–	–	–	–	–	–	–	–	–	–	–	–	–	–	–
